Among the data in ChEMBL document CHEMBL5390304, “Phenyl-quinoline-xxo-butyric Acid Inhibitors of Histone Lysine Demethylase for the Treatment of Cancer” (ACS Med Chem Lett, 2023) are IC50 values, retold here.

Experiment [1] concerns the target Lysine-specific demethylase 5B (Homo sapiens, UniProt Q9UGL1). In words: Inhibition of human recombinant KDM5B assessed as decarboxylation of [1-14C] alphaKG by measuring 14CO2 release using H3K4me3 as substrate incubated for 1 hr.
The target in experiment [2] is T1, Lysine-specific demethylase 4A (Homo sapiens, UniProt O75164).
T1 sequence (O75164 whole entry): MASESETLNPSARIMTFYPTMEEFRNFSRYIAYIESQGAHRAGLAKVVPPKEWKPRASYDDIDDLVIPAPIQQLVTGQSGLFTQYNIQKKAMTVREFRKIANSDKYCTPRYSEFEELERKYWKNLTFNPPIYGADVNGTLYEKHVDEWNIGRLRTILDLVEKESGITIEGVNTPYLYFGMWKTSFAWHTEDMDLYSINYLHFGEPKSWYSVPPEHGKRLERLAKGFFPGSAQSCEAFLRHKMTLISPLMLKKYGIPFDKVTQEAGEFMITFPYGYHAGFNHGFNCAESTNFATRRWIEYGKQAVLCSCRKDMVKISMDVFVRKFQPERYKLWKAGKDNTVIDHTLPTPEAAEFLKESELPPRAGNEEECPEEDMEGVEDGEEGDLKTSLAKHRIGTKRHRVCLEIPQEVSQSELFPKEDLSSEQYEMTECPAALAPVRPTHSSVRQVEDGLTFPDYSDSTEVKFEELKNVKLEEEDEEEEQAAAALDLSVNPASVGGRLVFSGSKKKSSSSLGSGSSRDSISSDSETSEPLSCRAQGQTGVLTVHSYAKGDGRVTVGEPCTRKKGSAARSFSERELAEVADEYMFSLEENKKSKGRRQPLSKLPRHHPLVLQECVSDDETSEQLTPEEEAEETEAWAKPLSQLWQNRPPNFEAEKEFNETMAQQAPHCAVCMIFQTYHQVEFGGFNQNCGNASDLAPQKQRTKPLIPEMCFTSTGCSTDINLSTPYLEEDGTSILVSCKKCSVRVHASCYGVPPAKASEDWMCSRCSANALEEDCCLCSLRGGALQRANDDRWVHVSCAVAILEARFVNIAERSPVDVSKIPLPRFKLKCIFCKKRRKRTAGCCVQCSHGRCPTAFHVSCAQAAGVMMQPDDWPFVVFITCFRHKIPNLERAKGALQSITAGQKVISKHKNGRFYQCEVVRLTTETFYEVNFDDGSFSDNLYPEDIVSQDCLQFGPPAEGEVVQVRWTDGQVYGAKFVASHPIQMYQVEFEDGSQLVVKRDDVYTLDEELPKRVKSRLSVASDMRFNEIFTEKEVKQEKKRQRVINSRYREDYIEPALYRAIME
Put plainly: Inhibition of human recombinant KDM4A assessed as decarboxylation of [1-14C] alphaKG at pH 7.4 using H3K9me3 as substrates incubated for 1 hr.

Sequence of Lysine-specific demethylase 5B (Q9UGL1 whole entry): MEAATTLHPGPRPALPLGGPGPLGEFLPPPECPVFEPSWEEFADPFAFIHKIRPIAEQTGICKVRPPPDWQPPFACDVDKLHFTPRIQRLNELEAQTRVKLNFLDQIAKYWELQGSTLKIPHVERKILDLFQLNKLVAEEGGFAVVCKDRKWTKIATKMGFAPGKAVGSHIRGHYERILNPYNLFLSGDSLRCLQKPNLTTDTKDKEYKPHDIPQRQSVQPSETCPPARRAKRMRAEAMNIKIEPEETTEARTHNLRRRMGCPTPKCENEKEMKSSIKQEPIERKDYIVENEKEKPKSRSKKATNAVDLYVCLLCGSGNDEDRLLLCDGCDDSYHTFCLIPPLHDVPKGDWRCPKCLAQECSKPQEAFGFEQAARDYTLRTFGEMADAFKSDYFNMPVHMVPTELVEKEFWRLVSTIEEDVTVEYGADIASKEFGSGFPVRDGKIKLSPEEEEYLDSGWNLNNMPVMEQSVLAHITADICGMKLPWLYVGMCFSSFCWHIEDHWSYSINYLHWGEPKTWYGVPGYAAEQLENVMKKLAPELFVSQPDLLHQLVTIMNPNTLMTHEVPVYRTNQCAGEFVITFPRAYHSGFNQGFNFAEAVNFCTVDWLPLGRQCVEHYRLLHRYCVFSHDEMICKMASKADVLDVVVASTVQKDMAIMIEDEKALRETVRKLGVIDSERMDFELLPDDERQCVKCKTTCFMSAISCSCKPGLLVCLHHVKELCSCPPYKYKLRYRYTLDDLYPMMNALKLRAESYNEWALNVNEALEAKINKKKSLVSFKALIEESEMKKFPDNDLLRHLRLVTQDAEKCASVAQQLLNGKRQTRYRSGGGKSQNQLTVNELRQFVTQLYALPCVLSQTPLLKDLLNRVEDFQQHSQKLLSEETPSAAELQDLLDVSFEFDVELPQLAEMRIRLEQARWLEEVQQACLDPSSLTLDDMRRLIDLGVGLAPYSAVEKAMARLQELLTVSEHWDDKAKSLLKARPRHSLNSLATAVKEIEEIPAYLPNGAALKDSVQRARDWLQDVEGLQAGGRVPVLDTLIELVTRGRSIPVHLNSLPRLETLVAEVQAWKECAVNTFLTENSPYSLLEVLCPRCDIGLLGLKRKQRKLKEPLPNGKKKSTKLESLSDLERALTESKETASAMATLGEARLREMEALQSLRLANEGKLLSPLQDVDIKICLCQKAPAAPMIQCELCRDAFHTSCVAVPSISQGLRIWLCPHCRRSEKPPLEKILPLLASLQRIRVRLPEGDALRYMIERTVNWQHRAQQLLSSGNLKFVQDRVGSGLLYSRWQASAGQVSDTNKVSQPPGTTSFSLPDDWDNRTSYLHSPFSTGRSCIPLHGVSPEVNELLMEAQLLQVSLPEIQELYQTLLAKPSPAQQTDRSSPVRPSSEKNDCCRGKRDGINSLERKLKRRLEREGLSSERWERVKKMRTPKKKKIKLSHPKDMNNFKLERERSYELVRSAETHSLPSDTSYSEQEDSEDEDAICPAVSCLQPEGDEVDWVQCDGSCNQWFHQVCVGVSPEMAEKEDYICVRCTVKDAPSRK

As usually defined, the IC50 is the concentration that inhibits the measured activity by half. As for `Cc1cccc(-c2ccc3c(C#N)c(O)c(C(=O)CCC(=O)O)nc3c2)c1`, the IC50 in experiment [1] was 230 nM; in experiment [2], 22 µM.
The like results for `N#Cc1c(O)c(C(=O)CCC(=O)O)nc2cc(Sc3ccccc3)ccc12` were, in that order, 150 nM and greater than 40 µM.
For `N#Cc1c(O)c(C(=O)CCC(=O)O)nc2ccc(-c3ccccc3)cc12`, the 50% inhibitory concentration (IC50) is 310 nM in experiment [1] and greater than 40 µM in experiment [2].
For the compound `N#Cc1c(O)c(C(=O)CCC(=O)O)nc2ccc(Cc3ccccc3)cc12`, the IC50 in experiment [1] is 970 nM; in experiment [2], greater than 40 µM.
For `N#Cc1c(O)c(C(=O)CCC(=O)O)nc2cc(-c3ccccc3)ccc12` the same measures were 90 nM and 3.9 µM.
For `COc1ccc(-c2ccc3c(C#N)c(O)c(C(=O)CCC(=O)O)nc3c2)cc1` the same measures were 220 nM and greater than 40 µM.
`Cc1cc(C)cc(-c2ccc3c(C#N)c(O)c(C(=O)CCC(=O)O)nc3c2)c1`: the values for the 50% inhibitory concentration (IC50) in experiment [1] and in experiment [2] were 370 nM and greater than 40 µM, respectively.
In the case of `O=C(O)CCC(=O)c1nc2cc(-c3ccccc3)ccc2cc1O`, the half-inhibitory concentration (IC50) in experiment [1] is greater than 40000 nM; in experiment [2] it was greater than 40 µM.
The like results for `N#Cc1ccc(-c2cccc3c(C#N)c(O)c(C(=O)CCC(=O)O)nc23)cc1` were, in that order, 130 nM and 7.9 µM.
The like results for `N#Cc1c(O)c(C(=O)CCC(=O)O)nc2ccccc12` were, in that order, 130 nM and 40 µM.
With `N#Cc1c(O)c(C(=O)CCC(=O)O)nc2cc(Cc3ccccc3)ccc12`, the 50% inhibitory concentration (IC50) is 240 nM in experiment [1] and greater than 40 µM in experiment [2].
